Source: ChEMBL document CHEMBL1201862, “PubChem BioAssay data set” (2004)
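48-hour exposure; five concentrations; linearly interpolated endpoints. Abbreviation: GI50, concentration required for 50% inhibition of growth.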 Activity calls are given as the source filed them. Rule as the data show it: active = GI50 up to about 1.1 µM and inactive = higher.

What was measured:
Test in all cases: NCI-60 cell line screen, 48 h
786-0 = test system: 786-0
A498 = test system: A498
A549 = test system: A549
ACHN = test system: ACHN
BT-549 = test system: BT-549
CCRF-CEM = test system: CCRF-CEM
COLO 205 = test system: COLO 205
DU-145 = test system: DU-145
EKVX = test system: EKVX
HCC 2998 = test system: HCC 2998
HCT-116 = test system: HCT-116
HCT-15 = test system: HCT-15
HL-60 = test system: HL-60
HOP-62 = test system: HOP-62
HOP-92 = test system: HOP-92
HT-29 = test system: HT-29
Hs-578T = test system: Hs-578T
IGROV-1 = test system: IGROV-1
K562 = test system: K562
KM12 = test system: KM12
M14 = test system: M14
MCF7 = test system: MCF7
MDA-MB-231 = test system: MDA-MB-231
MDA-MB-435 = test system: MDA-MB-435
MDA-N = test system: MDA-N
MOLT-4 = test system: MOLT-4
Malme-3M = test system: Malme-3M
NCI-H226 = test system: NCI-H226
NCI-H23 = test system: NCI-H23
NCI-H460 = test system: NCI-H460
NCI-H522 = test system: NCI-H522
NCI/ADR-RES = test system: NCI/ADR-RES
OVCAR-3 = test system: OVCAR-3
OVCAR-4 = test system: OVCAR-4
OVCAR-5 = test system: OVCAR-5
OVCAR-8 = test system: OVCAR-8
PC-3 = test system: PC-3
RPMI-8226 = test system: RPMI-8226
RXF 393 = test system: RXF 393
SF-268 = test system: SF-268
SF-295 = test system: SF-295
SF-539 = test system: SF-539
SK-MEL-28 = test system: SK-MEL-28
SK-MEL-2 = test system: SK-MEL-2
SK-MEL-5 = test system: SK-MEL-5
SK-OV-3 = test system: SK-OV-3
SN12C = test system: SN12C
SNB-19 = test system: SNB-19
SNB-75 = test system: SNB-75
SR = test system: SR
SW-620 = test system: SW-620
T47D = test system: T47D
TK-10 = test system: TK-10
U-251 = test system: U-251
UACC-257 = test system: UACC-257
UACC-62 = test system: UACC-62
UO-31 = test system: UO-31

In the case of `C/C(=C\CBr)CCC(Br)C(C)(C)Br` (configuration not stated), the GI50 (786-0) is reported as > 100 µM (inactive), the GI50 (A498) is reported as > 100 µM (inactive) and the GI50 (A549) is reported as > 100 µM (inactive). The GI50 (ACHN) was > 100 µM (inactive), the GI50 (BT-549) was > 100 µM (inactive) and the GI50 (CCRF-CEM) was > 100 µM (inactive). For the same molecule, the GI50 (COLO 205) was > 100 µM (inactive), the GI50 (DU-145) was > 100 µM (inactive) and the GI50 (EKVX) was > 100 µM (inactive). The GI50 (HCC 2998) was > 100 µM (inactive), the GI50 (HCT-116) was > 100 µM (inactive) and the GI50 (HCT-15) was greater than 100 µM. The GI50 (HL-60) was > 100 µM (inactive), the GI50 (HOP-62) was > 100 µM (inactive) and the GI50 (HOP-92) was > 100 µM (inactive). For the same molecule, the GI50 (HT-29) was > 100 µM (inactive), the GI50 (Hs-578T) was > 100 µM (inactive) and the GI50 (IGROV-1) was > 100 µM (inactive). The GI50 (K562) was > 100 µM (inactive), the GI50 (KM12) was > 100 µM (inactive) and the GI50 (M14) was > 100 µM (inactive). For the same molecule, the GI50 (MCF7) was > 100 µM (inactive), the GI50 (MDA-MB-231) was > 100 µM (inactive) and the GI50 (MDA-MB-435) was > 100 µM (inactive). For the same molecule, the GI50 (MDA-N) was > 100 µM (inactive), the GI50 (MOLT-4) was > 100 µM (inactive) and the GI50 (Malme-3M) was > 100 µM (inactive). The GI50 (NCI-H226) was > 100 µM (inactive), the GI50 (NCI-H23) was > 100 µM (inactive) and the GI50 (NCI-H460) was > 100 µM (inactive). For the same molecule, the GI50 (NCI-H522) was > 100 µM (inactive), the GI50 (NCI/ADR-RES) was > 100 µM (inactive) and the GI50 (OVCAR-3) was > 100 µM (inactive). For the same molecule, the GI50 (OVCAR-4) was > 100 µM (inactive), the GI50 (OVCAR-5) was > 100 µM (inactive) and the GI50 (OVCAR-8) was > 100 µM (inactive). The GI50 (PC-3) was > 100 µM (inactive), the GI50 (RPMI-8226) was > 100 µM (inactive) and the GI50 (RXF 393) was > 100 µM (inactive). For the same molecule, the GI50 (SF-268) was > 100 µM (inactive), the GI50 (SF-295) was > 100 µM (inactive) and the GI50 (SF-539) was > 100 µM (inactive). For the same molecule, the GI50 (SK-MEL-28) was > 100 µM (inactive), the GI50 (SK-MEL-2) was > 100 µM (inactive) and the GI50 (SK-MEL-5) was > 100 µM (inactive). For the same molecule, the GI50 (SK-OV-3) was > 100 µM (inactive), the GI50 (SN12C) was > 100 µM (inactive) and the GI50 (SNB-19) was > 100 µM (inactive). For the same molecule, the GI50 (SNB-75) was > 91.8 µM (inactive), the GI50 (SR) was > 100 µM (inactive) and the GI50 (SW-620) was > 100 µM (inactive). The GI50 (T47D) was > 100 µM (inactive), the GI50 (TK-10) was > 100 µM (inactive) and the GI50 (U-251) was > 100 µM (inactive). For the same molecule, the GI50 (UACC-257) was > 100 µM (inactive), the GI50 (UACC-62) was > 100 µM (inactive) and the GI50 (UO-31) was > 100 µM (inactive).
